Results as given in paper PMC8779173, “Discovery of Cofactor Competitive Inhibitors against the Human Methyltransferase Fibrillarin” (Pharmaceuticals, 2021).

Legend:
human fibrillarin (hFBL) [1] = target: T1, human fibrillarin (hFBL) (Homo sapiens, UniProt P22087); test: biochemical; parameters: SPR binding affinity of compounds to human fibrillarin methyltransferase domain; conditions: SPR
T1 construct: gene FBL; methyltransferase domain (residues 83–321)
T1 sequence (P22087 83-321): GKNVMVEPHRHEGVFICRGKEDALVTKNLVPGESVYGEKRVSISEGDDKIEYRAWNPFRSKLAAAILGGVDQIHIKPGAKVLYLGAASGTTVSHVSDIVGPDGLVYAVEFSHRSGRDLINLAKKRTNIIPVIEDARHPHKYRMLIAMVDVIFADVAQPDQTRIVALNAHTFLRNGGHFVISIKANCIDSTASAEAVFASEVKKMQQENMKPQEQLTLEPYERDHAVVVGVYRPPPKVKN
From the text: In addition, electron density for 1a was not observed beyond the amide linker, which appeared to be turning away from the catalytic site and pointing towards the bulk solvent. […] Indeed, the binding affinity of 1a turned out to be similar to that of 1 (Supplemental Table S3). […] Additionally, the extended piperidine ring in 2a was engaged in multiple hydrophobic interactions with residues G167, D236, and V237 with a stable chair conformation.

human fibrillarin (hFBL) [2] = target: T1, human fibrillarin (hFBL); test: ITC; also SPR (Kd […]), STD NMR and crystal structure; format: binding
human fibrillarin (hFBL) [3] = target: T1, human fibrillarin (hFBL); test: crystal structure (soak; no density beyond the amide linker); STD NMR competition with SAM; SPR; format: binding
human fibrillarin (hFBL) [4] = target: T1, human fibrillarin (hFBL); test: STD NMR competition with SAM; format: binding
human fibrillarin (hFBL) [5] = target: T1, human fibrillarin (hFBL); test: crystal structure (soak); STD NMR competition with SAM; SPR; format: binding

Kd (human fibrillarin (hFBL) [1]) | Compound | STD NMR competition with SAM (human fibrillarin (hFBL) [4]) | other results
510 ± 50 µM | N[C@H](Cc1cccc(NC(=O)Cc2cn3nc(C(F)(F)F)cc3c(=O)[nH]2)c1)C(=O)O [1a, (R)-2-Amino-3-(3-(2-(4-oxo-2-(trifluoromethyl)-4,5-dihydropyrazolo[1,5-a]pyrazin-6-yl)acetamido)phenyl)propanoic acid] |  | crystal structure (soak; no density beyond the amide linker); STD NMR competitio (human fibrillarin (hFBL) [3]): complex structures were obtained for 1a (PDB code: 7SEC) and 2a (PDB code: 7SED)
2660 ± 40 µM | N[C@@H](Cc1cccc(NC(=O)Cc2cn3nc(C(F)(F)F)cc3c(=O)[nH]2)c1)C(=O)O [1c, (S)-2-Amino-3-(3-(2-(4-oxo-2-(trifluoromethyl)-4,5-dihydropyrazolo[1,5-a]pyrazin-6-yl)acetamido)phenyl)propanoic acid] | without the amino acid 1e were also shown to compete with SAM binding to hFBL in solution by STD NMR | 
3350 ± 480 µM | N[C@@H](CCCNC(=O)Cc1cn2nc(C(F)(F)F)cc2c(=O)[nH]1)C(=O)O [1d, (S)-2-Amino-5-(2-(4-oxo-2-(trifluoromethyl)-4,5-dihydropyrazolo[1,5-a]pyrazin-6-yl)acetamido)pentanoic acid] | In addition to 1a, 1c, 1d, and a synthetic intermediate without the amino acid 1e were also shown to compete | 
250 ± 20 µM | FC(F)(F)c1cc(NC2CCOCC2)ncn1 [2b] | both 2a and 2b were shown to compete with cofactor binding by STD NMR assays | 
43.8 ± 2.2 µM | FC(F)(F)c1cc(NC2CCNCC2)ncn1 [2a] |  | crystal structure (soak); STD NMR competition with SAM; SPR (human fibrillarin (hFBL) [5]): complex structures were obtained for 1a (PDB code: 7SEC) and 2a (PDB code: 7SED)

More lines, now with the values behind:

Compound | Kd (human fibrillarin (hFBL) [1]) | STD NMR competition with SAM (human fibrillarin (hFBL) [4]) | other results
Cc1cn2cc(C(F)(F)F)cc2c(=O)[nH]1 [compound 1, PS-6655] | 520 ± 40 µM |  | 
Nc1cc(C(F)(F)F)ncn1 [compound 2, FS-2818] | 2700 ± 780 µM |  | 
C[S@@+](CC[C@H](N)C(=O)[O-])C[C@H]1O[C@@H](n2cnc3c(N)ncnc32)[C@H](O)[C@@H]1O [SAM] | 33.7 ± 7.7 µM |  | Kd (human fibrillarin (hFBL) [2]): 14 ± 0.8 µM
O=C(O)Cc1cn2nc(C(F)(F)F)cc2c(=O)[nH]1 [1e, 2-(4-Oxo-2-(trifluoromethyl)-4,5-dihydropyrazolo[1,5-a]pyrazin-6-yl)acetic acid] |  | a synthetic intermediate without the amino acid 1e were also shown to compete with SAM binding to hFBL | 
